Test results taken from patent US7750047B2, “Modulators (inhibitors/activators) of histone acetyltransferases” (Jawaharlal Nehru Centre for Advanced Scientific Research, priority 2002, dated 2010).
Like-named read-outs stand apart in the source and are kept apart here.

Columns and labels:
[1] = target: T1, p300 (Homo sapiens, UniProt Q09472); experiment: HAT assay (filter binding) with p300 and core histones; format: biochemical; design: Full-length p300 was also purified from the recombinant baculovirus infected Sf21 cells as a His6-tagged protein; His6; made in house; host or cells: Sf21 insect cells (recombinant baculovirus)
Excerpt: (§1) B: Biochemical Methods: Purification of Human Core Histones and Recombinant Proteins-Human core histones were purified from HeLa nuclear pellet as described previously (12). The FLAG epitope tagged Human Topoisomerase I, histone deacetylase 1 (HDAC1) and PCAF, were purified from the recombinant baculovirus infected insect cell line, Si 217 by the immunoaffinity purification using M2-agarose (SIGMA)(13). Full-length p300 was also purified from the recombinant baculovirus infected Sf21 cells as a His6-tagged protein through the Ni-NTA affinity column (Qiagen) as described previously (12). The His6-tagged nucleosome assembly protein 1 (NAP1), used for the in vitro chromatin assembly was purified from E. coli cells as previously reported (12) and the FLAG-tagged chimeric activator Ga14-VP16, expressed in E. coli and purified by immunoaffinity purification with M2 agarose. Human positive transcriptional coactivator, PC4, was expressed in E. coli and purified as described earlier (14).
(§2) HAT assays were performed as described elsewhere (12). Briefly, indicated amounts of proteins/peptide were incubated in HAT-assay buffer containing 50 Mm Tris-HCl, Ph 8.0, 10% (v/v) glycerol, 1 Mm dithiothreitol, 1 Mm phenylmethyl sulfonyl fluoride, 0.1 Mm EDTA, Ph 8.0, 10 Mm sodium butyrate at 30° C. for 10 min in presence or absence of compound followed by the addition of 1 pi of 6.2 Ci/mmol [^3H]-acetyl Coenzyme A (acetyl-CoA) and were further incubated for another 10 min. The final reaction volume was 30 ul. The reaction mixture was then blotted onto P-81 (Whatman) filter papers and radioactive counts were recorded on a Wallac 1409 liquid scintillation counter.
In order to characterize the inhibition kinetics of anacardic acid, filter-binding assays were done using constant amount of HeLa core histones in the presence or absence of AA with increasing concentrations of [3H]-acetyl CoA (see FIG. 3E). To visualize the radiolabeled acetylated histones, the reaction mixtures were resolved on 15% SDS-PAGE and processed for fluorography as described elsewhere (14).
Target sequence in this assay (Q09472 whole entry): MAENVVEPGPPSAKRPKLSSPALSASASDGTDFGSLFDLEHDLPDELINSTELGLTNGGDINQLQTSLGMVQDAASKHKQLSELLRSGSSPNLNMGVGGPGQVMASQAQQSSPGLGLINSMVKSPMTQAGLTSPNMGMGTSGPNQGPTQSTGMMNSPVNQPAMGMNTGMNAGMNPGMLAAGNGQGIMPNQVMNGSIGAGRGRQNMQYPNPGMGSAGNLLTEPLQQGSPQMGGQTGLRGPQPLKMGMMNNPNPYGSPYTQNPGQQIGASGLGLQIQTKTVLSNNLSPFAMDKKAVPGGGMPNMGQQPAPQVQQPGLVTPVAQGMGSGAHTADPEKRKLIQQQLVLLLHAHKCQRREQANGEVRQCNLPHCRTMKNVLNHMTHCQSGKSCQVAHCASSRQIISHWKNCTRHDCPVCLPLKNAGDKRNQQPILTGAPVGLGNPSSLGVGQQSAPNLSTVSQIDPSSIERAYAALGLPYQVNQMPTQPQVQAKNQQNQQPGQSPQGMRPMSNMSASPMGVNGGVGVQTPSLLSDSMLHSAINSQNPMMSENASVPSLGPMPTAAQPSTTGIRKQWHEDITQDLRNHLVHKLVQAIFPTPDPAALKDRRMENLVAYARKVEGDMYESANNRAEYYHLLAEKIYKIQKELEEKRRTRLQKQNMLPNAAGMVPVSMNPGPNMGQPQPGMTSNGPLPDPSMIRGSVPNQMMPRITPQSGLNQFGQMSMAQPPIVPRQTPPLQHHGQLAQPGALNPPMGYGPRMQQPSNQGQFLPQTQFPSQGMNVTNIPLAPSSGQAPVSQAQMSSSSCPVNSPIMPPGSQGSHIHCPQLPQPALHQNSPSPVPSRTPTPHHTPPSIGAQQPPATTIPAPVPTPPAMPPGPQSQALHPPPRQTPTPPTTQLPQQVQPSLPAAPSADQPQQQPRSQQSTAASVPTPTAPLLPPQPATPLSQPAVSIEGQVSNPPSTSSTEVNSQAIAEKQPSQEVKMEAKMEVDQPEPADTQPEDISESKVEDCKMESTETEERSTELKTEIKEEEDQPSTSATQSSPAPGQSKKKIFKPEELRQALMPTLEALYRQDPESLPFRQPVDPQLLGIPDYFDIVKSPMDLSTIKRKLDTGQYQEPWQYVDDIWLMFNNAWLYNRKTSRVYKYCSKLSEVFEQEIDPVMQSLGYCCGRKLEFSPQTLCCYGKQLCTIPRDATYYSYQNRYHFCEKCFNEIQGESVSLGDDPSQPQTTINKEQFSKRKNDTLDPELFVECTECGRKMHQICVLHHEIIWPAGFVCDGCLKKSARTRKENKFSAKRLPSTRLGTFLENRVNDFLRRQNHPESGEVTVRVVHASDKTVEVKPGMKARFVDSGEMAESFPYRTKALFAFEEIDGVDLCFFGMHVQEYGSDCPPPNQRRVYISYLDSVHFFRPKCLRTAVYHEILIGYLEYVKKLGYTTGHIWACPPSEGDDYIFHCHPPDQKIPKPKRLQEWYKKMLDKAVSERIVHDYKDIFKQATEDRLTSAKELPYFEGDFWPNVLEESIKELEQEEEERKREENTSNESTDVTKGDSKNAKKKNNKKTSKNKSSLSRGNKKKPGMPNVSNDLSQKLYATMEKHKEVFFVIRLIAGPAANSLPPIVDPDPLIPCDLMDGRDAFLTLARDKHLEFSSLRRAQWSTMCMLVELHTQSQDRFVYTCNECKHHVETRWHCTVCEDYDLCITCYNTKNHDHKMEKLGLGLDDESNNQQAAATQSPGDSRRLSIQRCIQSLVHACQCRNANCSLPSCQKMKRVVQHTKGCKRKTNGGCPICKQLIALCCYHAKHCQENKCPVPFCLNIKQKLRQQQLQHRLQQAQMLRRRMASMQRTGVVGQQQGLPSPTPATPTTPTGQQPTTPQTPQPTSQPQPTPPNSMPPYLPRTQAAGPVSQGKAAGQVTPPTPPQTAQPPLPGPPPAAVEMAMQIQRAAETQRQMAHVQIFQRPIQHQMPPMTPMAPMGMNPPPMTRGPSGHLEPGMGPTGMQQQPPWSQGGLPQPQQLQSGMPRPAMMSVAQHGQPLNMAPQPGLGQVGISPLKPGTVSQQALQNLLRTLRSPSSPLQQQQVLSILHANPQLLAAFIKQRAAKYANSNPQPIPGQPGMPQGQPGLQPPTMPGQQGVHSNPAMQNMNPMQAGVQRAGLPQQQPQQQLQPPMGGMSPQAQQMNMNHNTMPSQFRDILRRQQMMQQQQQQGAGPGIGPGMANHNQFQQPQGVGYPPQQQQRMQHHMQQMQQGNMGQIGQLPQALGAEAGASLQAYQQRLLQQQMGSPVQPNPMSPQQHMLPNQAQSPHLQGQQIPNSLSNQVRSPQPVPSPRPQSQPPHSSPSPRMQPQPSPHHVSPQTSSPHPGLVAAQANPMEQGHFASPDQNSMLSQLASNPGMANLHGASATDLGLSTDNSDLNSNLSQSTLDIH

[2] = target: T1, p300; experiment: In vitro p300 HAT-dependent transcription assay from chromatin template; format: biochemical; design: Full-length p300 was also purified from the recombinant baculovirus infected Sf21 cells as a His6-tagged protein; His6; made in house; host or cells: Sf21 insect cells (recombinant baculovirus)
Procedure: In Vitro Chromatin assembly: Chromatin template for in vitro transcription experiments was assembled and characterized as described earlier (8).
(§3) In Vitro Transcription Assay: Transcription assays were essentially carried out as described elsewhere (8), with minor modifications. The scheme of transcription is enumerated in FIG. 6A. Briefly, 30 ng of DNA/equivalent amount of chromatin template was incubated with 30 ng of activator (Gal4-VP16) in a buffer containing 4 mM HEPES (pH 7.8), 20 mM KCl, 2 mM DTT, 0.2 mM PMSF, 10 mM sodium butyrate, 0.1 mg/ml BSA, 2% glycerol (8). The activating compounds were added to the acetylation reaction along with p300 and acetyl-CoA, and incubated for 30 min. at 30° C. This was followed by addition of the p300 specific inhibitor Lysyl CoA (5 nom) to quench the acetylation reaction.
(§4) For inhibitors, the HAT p300 was pre-incubated with indicated amounts of inhibitor on ice for 20 min., following which it was added to the acetylation reaction in the transcription assay. […] The ^32P-radiolabeled transcript was extracted with phenol-chloroform, ethanol precipitated, dried pellet dissolved in loading dye (8 M Urea, 0.005% bromophenol blue and xylene cyanol) and analyzed on 5% urea-polyacrylamide gel. […] Quantification of transcription was done by Fuji BAS system. Quantitation of DNA and chromatin transcription data represents three independent experiments.
Target sequence in this assay (Q09472 whole entry): as above

[3] = system: histone acetyltransferases; experiment: HAT inhibition test of salicylic acid and benzoic acid; format: biochemical
Procedure: as §2

[4] = target: T1, p300; conditions: cited from earlier work
Target sequence in this assay (Q09472 whole entry, species assumed): as the sequence (Q09472 whole entry) above

[5] = system: basal transcription machinery; experiment: In vitro transcription assay from histone-free DNA template; format: biochemical, human; conditions: compared to DMSO control
Procedure: as §3
as §4, with “assay. For the DNA transcription assays and chromatin transcription inhibition assays, the Lysyl CoA step was omitted.” for “assay.”

[6] = target: T2, PCAF (Homo sapiens, UniProt Q92831); experiment: HAT assay (filter binding) with PCAF and core histones; format: biochemical
T2 construct: FLAG; made in house; host or cells: insect cell line (printed 'Si 217', probably Sf21), recombinant baculovirus
T2 sequence (Q92831 whole entry): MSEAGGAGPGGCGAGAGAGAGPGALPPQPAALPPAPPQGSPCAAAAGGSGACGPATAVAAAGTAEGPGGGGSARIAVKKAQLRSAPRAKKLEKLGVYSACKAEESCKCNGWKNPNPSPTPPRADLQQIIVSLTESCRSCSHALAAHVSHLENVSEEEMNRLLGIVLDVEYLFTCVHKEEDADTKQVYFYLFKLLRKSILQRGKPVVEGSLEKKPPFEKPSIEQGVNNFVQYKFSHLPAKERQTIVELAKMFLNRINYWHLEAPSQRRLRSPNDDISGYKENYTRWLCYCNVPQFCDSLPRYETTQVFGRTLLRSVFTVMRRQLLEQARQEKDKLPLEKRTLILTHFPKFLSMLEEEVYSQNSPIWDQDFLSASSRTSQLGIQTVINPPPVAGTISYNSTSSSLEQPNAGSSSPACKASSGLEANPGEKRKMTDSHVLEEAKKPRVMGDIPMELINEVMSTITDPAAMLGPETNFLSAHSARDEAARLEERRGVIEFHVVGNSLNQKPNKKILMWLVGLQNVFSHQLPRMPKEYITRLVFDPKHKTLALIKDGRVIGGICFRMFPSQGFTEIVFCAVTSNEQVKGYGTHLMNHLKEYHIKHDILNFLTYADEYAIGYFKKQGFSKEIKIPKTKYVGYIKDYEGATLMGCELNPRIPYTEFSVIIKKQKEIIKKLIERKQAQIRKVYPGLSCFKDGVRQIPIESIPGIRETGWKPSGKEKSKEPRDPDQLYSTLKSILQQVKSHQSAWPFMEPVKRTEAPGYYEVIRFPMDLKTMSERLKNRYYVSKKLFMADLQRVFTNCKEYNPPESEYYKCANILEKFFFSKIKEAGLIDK
Excerpt: as §1
HAT assays were performed as described elsewhere (12). […] The reaction mixture was then blotted onto P-81 (Whatman) filter papers and radioactive counts were recorded on a Wallac 1409 liquid scintillation counter.

**Q.** Which “increase in histone acetylation levels” value [1] does the source give for `CCCCCCCCCCCCCCCc1cccc(OCC)c1C(=O)Nc1ccc(Cl)c(C(F)(F)F)c1` [CTPB, N-(4-Chloro-3-trifluoromethyl-phenyl)-2-ethoxy-6-pentadecyl-benzamide] here?
**A.** The value was ~5 fold.

**Q.** What about the “enhancement of p300 HAT activity” value ([1]; human core histones) of the same compound?
**A.** Its value is “specifically enhances”.

**Q.** What about the “enhancement of levels of HAT-dependent transcription from chromatin template over DMSO control” value ([2]; added with p300 and acetyl CoA, 30 min acetylation) of the same compound?
**A.** Its value is 1.6 fold.

**Q.** Which “inhibitory activity against histone acetyltransferases” value [3] does the source give for `O=C(O)c1ccccc1` [benzoic acid] here?
**A.** The value was “Neither salicylic acid nor benzoic acid shown any inhibitory activity”.

**Q.** With Lys-CoA as the compound, how does the “inhibition of HAT activity of p300” value [4] read?
**A.** The value was “specifically inhibit”.

**Q.** With `O=C(O)c1ccccc1O` [salicylic acid] as the compound, how does the “inhibitory activity against histone acetyltransferases” value [3] read?
**A.** The value was “Neither salicylic acid nor benzoic acid shown any inhibitory activity”.

**Q.** What does the source list for `CCCCCCCCCCCCCCCc1cccc(O)c1C(=O)O` [anacardic acid, 2-hydroxy-6-pentadecylbenzoic acid]?
**A.** effect on transcript levels from DNA template [5]: but not DNA transcription; inhibition of HAT activity of PCAF [6]: inhibits; inhibitory activity towards p300 HAT activity [1]: inhibits; type of p300-HAT inhibition (double reciprocal plot 1/c.p.m. vs. 1/[Acetyl CoA]) ([1]; increasing [3H]-acetyl CoA, constant amount of core histones): non-competitive; inhibitory activity towards p300 HAT activity ([1]; listed as Anacardic acid): equally potent inhibitory activity; inhibition of p300 HAT activity dependent transcription from the chromatin template [2]: inhibits
